Experimental data: patent publication US12077503B2, “Substituted cyclic amides and their use as herbicides” (FMC CORPORATION, priority 2015, dated 2024)
Where two headings read alike, the source gives them in different places.

How the values were obtained:
Experiment in all cases: Test A preemergence
Format in all cases: in vivo
Kochia (Kochia scoparia) = details: Bassia scoparia, pre-emergence, 240 h; for pest or weed control at 125 g/ha: 125 g ai/ha; for pest or weed control at 500 g/ha: 500 g ai/ha
Method in brief: (§1)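 Seeded soil received test chemicals as a preemergence directed spray, and seedlings at one to two leaves, 2–10 cm tall, received them postemergence, in a non-phytotoxic, surfactant-containing solvent mixture. Pots were held in a greenhouse for approximately 10 d, then rated for injury from 0, no effect, to 100, complete control.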

[1] = test system: giant foxtail (Setaria faberii); details: Setaria faberi, pre-emergence, 240 h; for pest or weed control at 125 g/ha: 125 g ai/ha; for pest or weed control at 500 g/ha: 500 g ai/ha
Method in brief: as §1

[2] = test system: pigweed (Amaranthus retroflexus); details: Amaranthus retroflexus, pre-emergence, 240 h; for pest or weed control at 125 g/ha: 125 g ai/ha; for pest or weed control at 500 g/ha: 500 g ai/ha
[3] = test system: ragweed (common ragweed, Ambrosia elatior); details: Ambrosia artemisiifolia, pre-emergence, 240 h; for pest or weed control at 125 g/ha: 125 g ai/ha; for pest or weed control at 500 g/ha: 500 g ai/ha
Method in brief: as §1

[4] = test system: ryegrass, Italian (Italian ryegrass, Lolium multiflorum); details: Lolium multiflorum, pre-emergence, 240 h; for pest or weed control at 125 g/ha: 125 g ai/ha; for pest or weed control at 500 g/ha: 500 g ai/ha
Method in brief: as §1

[5] = preemergence, 0 to 100 scale where 0 is no effect and 100 is complete control, approx. 10 d, read-out: Kochia plant response rating
[6] = preemergence, 0 to 100 scale where 0 is no effect and 100 is complete control, read-out: Kochia plant response rating
[7] = preemergence, 0 to 100 scale where 0 is no effect and 100 is complete control, approx. 10 d, read-out: Foxtail, Giant plant response rating
[8] = preemergence, 0 to 100 scale where 0 is no effect and 100 is complete control, read-out: Foxtail, Giant plant response rating
[9] = preemergence, 0 to 100 scale where 0 is no effect and 100 is complete control, approx. 10 d, read-out: Pigweed plant response rating
[10] = preemergence, 0 to 100 scale where 0 is no effect and 100 is complete control, read-out: Pigweed plant response rating
[11] = preemergence, 0 to 100 scale where 0 is no effect and 100 is complete control, approx. 10 d, read-out: Ragweed plant response rating
[12] = preemergence, 0 to 100 scale where 0 is no effect and 100 is complete control, read-out: Ragweed plant response rating
[13] = preemergence, 0 to 100 scale where 0 is no effect and 100 is complete control, approx. 10 d, read-out: Ryegrass, Italian plant response rating
[14] = preemergence, 0 to 100 scale where 0 is no effect and 100 is complete control, read-out: Ryegrass, Italian plant response rating
[15] = Preemergence, visual injury vs untreated controls after approximately 10 d, read-out: Kochia plant response rating (0 to 100 scale where 0 is no effect and 100 is complete control)
[16] = Preemergence, visual injury vs untreated controls after approximately 10 d, read-out: Foxtail, Giant plant response rating (0 to 100 scale where 0 is no effect and 100 is complete control)
[17] = Preemergence, visual injury vs untreated controls after approximately 10 d, read-out: Pigweed plant response rating (0 to 100 scale where 0 is no effect and 100 is complete control)
[18] = Preemergence, visual injury vs untreated controls after approximately 10 d, read-out: Ragweed plant response rating (0 to 100 scale where 0 is no effect and 100 is complete control)
[19] = Preemergence, visual injury vs untreated controls after approximately 10 d, read-out: Ryegrass, Italian plant response rating (0 to 100 scale where 0 is no effect and 100 is complete control)

| Structure (SMILES) | pest or weed control at 125 g/ha (Kochia (Kochia scoparia); [5]) [%] | pest or weed control at 500 g/ha (Kochia (Kochia scoparia); [6]) [%] | pest or weed control at 125 g/ha [1, 7] [%] | pest or weed control at 500 g/ha [1, 8] [%] | pest or weed control at 125 g/ha [2, 9] [%] | pest or weed control at 500 g/ha [2, 10] [%] | pest or weed control at 125 g/ha [3, 11] [%] | pest or weed control at 500 g/ha [3, 12] [%] | pest or weed control at 125 g/ha [4, 13] [%] | pest or weed control at 500 g/ha [4, 14] [%] | pest or weed control at 125 g/ha (Kochia (Kochia scoparia); [6]) [%] | pest or weed control at 500 g/ha (Kochia (Kochia scoparia); [15]) [%] | pest or weed control at 125 g/ha [1, 8] [%] | pest or weed control at 500 g/ha [1, 16] [%] | pest or weed control at 125 g/ha [2, 10] [%] | pest or weed control at 500 g/ha [2, 17] [%] | pest or weed control at 125 g/ha [3, 12] [%] | pest or weed control at 500 g/ha [3, 18] [%] | pest or weed control at 125 g/ha [4, 14] [%] | pest or weed control at 500 g/ha [4, 19] [%] | further results |
| --- | --- | --- | --- | --- | --- | --- | --- | --- | --- | --- | --- | --- | --- | --- | --- | --- | --- | --- | --- | --- | --- |
| O=C1NC[C@H](c2cc(C(F)F)cs2)[C@H]1C(=O)Nc1cccc(F)c1F [Compound 1117] | 40 | 70 | 50 | 90 | 0 | 0 | 20 | 70 | 0 | 60 |  |  |  |  |  |  |  |  |  |  |  |
| CC(C)Oc1ccc([C@H]2CNC(=O)[C@@H]2C(=O)Nc2cccc(F)c2F)cc1 [Compound 1136] | 0 | 80 | 30 | 90 | 0 | 0 | 0 | 0 | 0 | 30 |  |  |  |  |  |  |  |  |  |  |  |
| CN1C[C@H](c2cc(F)c(C(F)(F)F)c(F)c2)[C@@H](C(=O)Nc2ccc(F)cc2F)C1=O [Compound 901] |  |  |  |  |  |  |  |  |  |  | 80 | 80 | 90 | 90 | 30 | 60 | 0 | 0 | 20 | 50 |  |
| CN1C[C@H](c2csc(C(F)F)c2)[C@@H](C(=O)Nc2ccccc2F)C1=O [Compound 1123] | 60 | 80 | 90 | 90 | 0 | 50 | 20 | 60 | 40 | 60 |  |  |  |  |  |  |  |  |  |  |  |
| CC(C)Oc1ccc([C@H]2CNC(=O)[C@@H]2C(=O)Nc2ccccc2F)cc1 [Compound 1135] | 0 | 0 | 0 | 0 | 0 | 0 | 0 | 0 | 0 | 0 |  |  |  |  |  |  |  |  |  |  |  |
| COc1ccc([C@H]2CN(C)C(=O)[C@@H]2C(=O)Nc2ccccc2F)cc1OC [Compound 852] |  |  |  |  |  |  |  |  |  |  | 0 | 20 | 90 | 90 | 20 | 40 | 0 | 0 | 0 | 30 |  |
| CN1C[C@H](c2ccc(C#N)cc2)[C@@H](C(=O)Nc2cccc(F)c2F)C1=O [Compound 1208] |  | 100 |  | 100 |  | 90 |  | 100 |  | 70 |  |  |  |  |  |  |  |  |  |  | pest or weed control at 125 g/ha (Kochia (Kochia scoparia); preemergence, visual injury rating, 0 to 100 scale where 0 is no effect and 100 is complete control, approximately 10 d, read-out: Kochia plant response rating): 70%; pest or weed control at 125 g/ha ([1]; preemergence, visual injury rating, 0 to 100 scale where 0 is no effect and 100 is complete control, approximately 10 d, read-out: Foxtail, Giant plant response rating): 100%; pest or weed control at 125 g/ha ([2]; preemergence, visual injury rating, 0 to 100 scale where 0 is no effect and 100 is complete control, approximately 10 d, read-out: Pigweed plant response rating): 60%; pest or weed control at 125 g/ha ([3]; preemergence, visual injury rating, 0 to 100 scale where 0 is no effect and 100 is complete control, approximately 10 d, read-out: Ragweed plant response rating): 40%; pest or weed control at 125 g/ha ([4]; preemergence, visual injury rating, 0 to 100 scale where 0 is no effect and 100 is complete control, approximately 10 d, read-out: Ryegrass, Italian plant response rating): 20% |
| COc1cc(C(F)(F)F)ccc1[C@H]1CN(C)C(=O)[C@@H]1C(=O)Nc1ccccc1SC [Compound 860] |  |  |  |  |  |  |  |  |  |  | 0 | 60 | 90 | 90 | 60 | 90 | 0 | 50 | 20 | 40 |  |
| O=C1NC[C@H](c2cc(C(F)F)cs2)[C@H]1C(=O)Nc1ccccc1F [Compound 1116] | 0 | 30 | 20 | 90 | 0 | 20 | 0 | 20 | 0 | 20 |  |  |  |  |  |  |  |  |  |  |  |
| CN1C[C@H](c2cc(F)c(F)c(F)c2)[C@@H](C(=O)Nc2ccccc2F)C1=O [Compound 878] |  |  |  |  |  |  |  |  |  |  | 70 | 90 | 100 | 100 | 0 | 40 | 30 | 80 | 30 | 70 |  |
| CCc1ccc([C@H]2CNC(=O)[C@@H]2C(=O)Nc2cccc(F)c2C)cc1 [Compound 1177] | 30 | 30 | 70 | 100 | 0 | 20 | 0 | 30 | 30 | 70 |  |  |  |  |  |  |  |  |  |  |  |
